Measurements taken from US12692238B2, “Substituted pyridazinone herbicides” (FMC CORPORATION, priority 2020, dated 2026).

Assays:
Type in all cases: in vivo
[1] = system: goosegrass (Eleusine indica); assay: Test A postemergence, goosegrass; conditions: 10 days
Text: (§1) Seeds of plant species selected from barnyardgrass (Echinochloa crus-galli), blackgrass (Alopecurus myosuroides), corn (Zea mays), foxtail, giant (giant foxtail, Setaria faberi), foxtail, green (green foxtail, Setaria viridis), goosegrass (Eleusine indica), kochia (Bassia scoparia), oat, wild (wild oat, Avena fatua), palmer amaranth (pigweed, palmer, Amaranthus palmeri), redroot pigweed (Amaranthus retroflexus), ragweed (common ragweed, Ambrosia artemisiifolia), ryegrass, Italian (Italian ryegrass, Lolium multiflorum), and soybean (Glycine max) were planted into a blend of loam soil and sand and treated preemergence with a directed soil spray using test chemicals formulated in a non-phytotoxic solvent mixture which included a surfactant.
(§2) At the same time, plants selected from these crop and weed species and also wheat (Triticum aestivum), galium (catchweed bedstraw, Galium aparine) and horseweed (Erigeron canadensis) were planted in pots containing the same blend of loam soil and sand and treated with postemergence applications of test chemicals formulated in the same manner. Plants ranged in height from 2 to 10 cm and were in the one- to two-leaf stage for the postemergence treatment. Treated plants and untreated controls were maintained in a greenhouse for 10 days, after which time all treated plants were compared to untreated controls and visually evaluated for injury. Plant response ratings, summarized in Table A, are based on a 0 to 100 scale where 0 is no effect and 100 is complete control. A dash (-) response means no test result.

[2] = system: ragweed (common ragweed, Ambrosia artemisiifolia); assay: Test A postemergence, ragweed; conditions: 10 days
How it was run: (§3)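 Greenhouse pot test in loam/sand; preemergence = directed soil spray after planting, postemergence = foliar spray at 1–2 leaf stage (2–10 cm). Formulation: non-phytotoxic solvent mix plus surfactant. Visual injury vs untreated, 0–100 scale, day 10.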

[3] = system: foxtail, giant (giant foxtail, Setaria faberi); assay: Test A postemergence, foxtail, giant; conditions: 10 days
How it was run: as §3

soybean (Glycine max) [4] = assay: Test A preemergence, soybean; conditions: 0 to 100 scale, 10 days
Text: as §1, §2

[5] = system: ryegrass, Italian (Italian ryegrass, Lolium multiflorum); assay: Test A preemergence, ryegrass, Italian; conditions: 0 to 100 scale, 10 days
How it was run: as §3

[6] = system: ryegrass, Italian (Italian ryegrass, Lolium multiflorum); assay: Test A postemergence, ryegrass, Italian; conditions: 10 days
How it was run: as §3

[7] = system: foxtail, giant (giant foxtail, Setaria faberi); assay: Test A preemergence, foxtail, giant; conditions: 0 to 100 scale, 10 days
How it was run: as §3

corn (Zea mays) [8] = assay: Test A preemergence, corn; conditions: 0 to 100 scale, 10 days
Text: as §1, §2

rice (Oryza sativa) = assay: Test B flooded paddy test, rice; conditions: 250 g ai/ha, Flood; visually evaluated after 10 to 14 days
How it was run: (§4)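 Application into floodwater (3 cm over soil) at the 2-leaf stage, with the depth held constant, followed by greenhouse growth for 10–14 days. Percent control was estimated visually versus controls, where 100 is complete control.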

[9] = system: oat, wild (wild oat, Avena fatua); assay: Test A preemergence, oat, wild; conditions: 0 to 100 scale, 10 days
Text: as §1, §2

[10] = system: goosegrass (Eleusine indica); assay: Test A preemergence, goosegrass; conditions: 0 to 100 scale, 10 days
Text: as §1, §2

corn (Zea mays) [11] = assay: Test A postemergence, corn; conditions: 10 days
How it was run: as §3

[12] = system: barnyardgrass (Echinochloa crus-galli); assay: Test B flooded paddy test, barnyardgrass; conditions: 250 g ai/ha, Flood; visually evaluated after 10 to 14 days
How it was run: as §4

[13] = system: oat, wild (wild oat, Avena fatua); assay: Test A postemergence, oat, wild; conditions: 10 days
Text: as §1, §2

[14] = system: palmer amaranth (pigweed, palmer, Amaranthus palmeri); assay: Test A preemergence, palmer amaranth; conditions: 0 to 100 scale, 10 days
Text: as §1, §2

[15] = system: wheat (Triticum aestivum); assay: Test A preemergence, wheat; conditions: 125 g ai/ha, 0 to 100 scale, 10 days
[16] = system: sedge, umbrella (small-flower umbrella sedge, Cyperus difformis); assay: Test B flooded paddy test, sedge, umbrella; conditions: 250 g ai/ha, Flood; visually evaluated after 10 to 14 days
How it was run: as §4

[17] = system: blackgrass (Alopecurus myosuroides); assay: Test A postemergence, blackgrass; conditions: 10 days
How it was run: as §3

[18] = system: horseweed (Erigeron canadensis); assay: Test A postemergence, horseweed; conditions: 10 days
Text: as §1, §2

[19] = system: ducksalad (Heteranthera limosa); assay: Test B flooded paddy test, ducksalad; conditions: 250 g ai/ha, Flood; visually evaluated after 10 to 14 days
How it was run: as §4

kochia (Bassia scoparia) [20] = assay: Test A preemergence, kochia; conditions: 0 to 100 scale, 10 days
How it was run: as §3

[21] = system: ragweed (common ragweed, Ambrosia artemisiifolia); assay: Test A preemergence, ragweed; conditions: 0 to 100 scale, 10 days
How it was run: as §3

[22] = system: blackgrass (Alopecurus myosuroides); assay: Test A preemergence, blackgrass; conditions: 0 to 100 scale, 10 days
Text: as §1, §2

soybean (Glycine max) [23] = assay: Test A postemergence, soybean; conditions: 10 days
Text: as §1, §2

[24] = system: galium (catchweed bedstraw, Galium aparine); assay: Test A postemergence, galium; conditions: 10 days
How it was run: as §3

kochia (Bassia scoparia) [25] = assay: Test A postemergence, kochia; conditions: 10 days
How it was run: as §3

[26] = system: palmer amaranth (pigweed, palmer, Amaranthus palmeri); assay: Test A postemergence, palmer amaranth; conditions: 10 days
Text: as §1, §2

[27] = system: wheat (Triticum aestivum); assay: Test A postemergence, wheat; conditions: 10 days
How it was run: as §3

[28] = 31 g ai/ha, postemergence, 0 to 100 scale (0 no effect, 100 complete control)
[29] = Postemergence, 125 g ai/ha, 0 to 100 scale

Cc1ccc2cc3ccc(C)cc3c(-c3c(OCOC(=O)N(C)C)c(Cl)nn(C)c3=O)c2c1 [Compound 18]
Plant response rating, Goosegrass [1, 28]: 0 | Plant response rating, Goosegrass [1, 29]: 0 | Plant response rating, Ragweed [2, 28]: 30 | Plant response rating, Ragweed [2, 29]: 100 | Plant response rating, Foxtail, Giant [3, 28]: 0 | Plant response rating, Foxtail, Giant [3, 29]: 0 | Plant response rating, Soybean (soybean (Glycine max) [4]; 31 g ai/ha): 0 | Plant response rating, Soybean (soybean (Glycine max) [4]; 125 g ai/ha): 0 | Plant response rating, Ryegrass, Italian ([5]; 31 g ai/ha): 0 | Plant response rating, Ryegrass, Italian ([5]; 125 g ai/ha): 0 | Plant response rating, Ryegrass, Italian [6, 28]: 0 | Plant response rating, Ryegrass, Italian [6, 29]: 0 | Plant response rating, Foxtail, Giant ([7]; 31 g ai/ha): 0 | Plant response rating, Foxtail, Giant ([7]; 125 g ai/ha): 0 | Plant response rating, Corn (corn (Zea mays) [8]; 31 g ai/ha): 0 | Plant response rating, Corn (corn (Zea mays) [8]; 125 g ai/ha): 0 | Plant response rating, Rice (0 to 100 scale where 0 is no effect and 100 is complete control) (rice (Oryza sativa)): 0 | Plant response rating, Oat, Wild ([9]; 31 g ai/ha): 0 | Plant response rating, Oat, Wild ([9]; 125 g ai/ha): 0 | Plant response rating, Goosegrass ([10]; 31 g ai/ha): 0 | Plant response rating, Goosegrass ([10]; 125 g ai/ha): 0 | Plant response rating, Corn (corn (Zea mays) [11]; [28]): 0 | Plant response rating, Corn (corn (Zea mays) [11]; [29]): 0 | Plant response rating, Barnyardgrass (0 to 100 scale where 0 is no effect and 100 is complete control) [12]: 0 | Plant response rating, Oat, Wild [13, 28]: 0 | Plant response rating, Oat, Wild [13, 29]: 0 | Plant response rating, Pigweed, Palmer ([14]; 31 g ai/ha): 0 | Plant response rating, Pigweed, Palmer ([14]; 125 g ai/ha): 40 | Plant response rating, Wheat [15]: 0 | Plant response rating, Sedge, Umbrella (0 to 100 scale where 0 is no effect and 100 is complete control) [16]: 15 | Plant response rating, Blackgrass [17, 28]: 0 | Plant response rating, Blackgrass [17, 29]: 0 | Plant response rating, Horseweed [18, 29]: 20 | Plant response rating, Ducksalad (0 to 100 scale where 0 is no effect and 100 is complete control) [19]: 0 | Plant response rating, Kochia (kochia (Bassia scoparia) [20]; 31 g ai/ha): 0 | Plant response rating, Kochia (kochia (Bassia scoparia) [20]; 125 g ai/ha): 0 | Plant response rating, Ragweed ([21]; 31 g ai/ha): 0 | Plant response rating, Ragweed ([21]; 125 g ai/ha): 0 | Plant response rating, Blackgrass ([22]; 31 g ai/ha): 0 | Plant response rating, Blackgrass ([22]; 125 g ai/ha): 0 | Plant response rating, Soybean (soybean (Glycine max) [23]; [28]): 0 | Plant response rating, Soybean (soybean (Glycine max) [23]; [29]): 20 | Plant response rating, Galium [24, 28]: 0 | Plant response rating, Galium [24, 29]: 30 | Plant response rating, Kochia (kochia (Bassia scoparia) [25]; [28]): 40 | Plant response rating, Kochia (kochia (Bassia scoparia) [25]; [29]): 70 | Plant response rating, Pigweed, Palmer [26, 28]: 30 | Plant response rating, Pigweed, Palmer [26, 29]: 50 | Plant response rating, Wheat [27, 28]: 0 | Plant response rating, Wheat [27, 29]: 0

Cn1nc(Cl)c(OCOC(=O)C(C)(C)C)c(-c2c3ccccc3cc3ccccc23)c1=O [Compound 19]
Plant response rating, Goosegrass [1, 28]: 10 | Plant response rating, Goosegrass [1, 29]: 10 | Plant response rating, Ragweed [2, 28]: 100 | Plant response rating, Ragweed [2, 29]: 100 | Plant response rating, Foxtail, Giant [3, 28]: 10 | Plant response rating, Foxtail, Giant [3, 29]: 50 | Plant response rating, Soybean (soybean (Glycine max) [4]; 31 g ai/ha): 0 | Plant response rating, Soybean (soybean (Glycine max) [4]; 125 g ai/ha): 0 | Plant response rating, Ryegrass, Italian ([5]; 31 g ai/ha): 0 | Plant response rating, Ryegrass, Italian ([5]; 125 g ai/ha): 80 | Plant response rating, Ryegrass, Italian [6, 28]: 0 | Plant response rating, Ryegrass, Italian [6, 29]: 10 | Plant response rating, Foxtail, Giant ([7]; 31 g ai/ha): 10 | Plant response rating, Foxtail, Giant ([7]; 125 g ai/ha): 70 | Plant response rating, Corn (corn (Zea mays) [8]; 31 g ai/ha): 0 | Plant response rating, Corn (corn (Zea mays) [8]; 125 g ai/ha): 0 | Plant response rating, Rice (0 to 100 scale where 0 is no effect and 100 is complete control) (rice (Oryza sativa)): 0 | Plant response rating, Oat, Wild ([9]; 31 g ai/ha): 0 | Plant response rating, Oat, Wild ([9]; 125 g ai/ha): 0 | Plant response rating, Goosegrass ([10]; 31 g ai/ha): 0 | Plant response rating, Goosegrass ([10]; 125 g ai/ha): 30 | Plant response rating, Corn (corn (Zea mays) [11]; [28]): 10 | Plant response rating, Corn (corn (Zea mays) [11]; [29]): 20 | Plant response rating, Barnyardgrass (0 to 100 scale where 0 is no effect and 100 is complete control) [12]: 35 | Plant response rating, Oat, Wild [13, 28]: 10 | Plant response rating, Oat, Wild [13, 29]: 10 | Plant response rating, Pigweed, Palmer ([14]; 31 g ai/ha): 90 | Plant response rating, Pigweed, Palmer ([14]; 125 g ai/ha): 100 | Plant response rating, Wheat [15]: 0 | Plant response rating, Sedge, Umbrella (0 to 100 scale where 0 is no effect and 100 is complete control) [16]: 85 | Plant response rating, Blackgrass [17, 28]: 0 | Plant response rating, Blackgrass [17, 29]: 0 | Plant response rating, Horseweed [18, 28]: 100 | Plant response rating, Horseweed [18, 29]: 90 | Plant response rating, Ducksalad (0 to 100 scale where 0 is no effect and 100 is complete control) [19]: 100 | Plant response rating, Kochia (kochia (Bassia scoparia) [20]; 31 g ai/ha): 0 | Plant response rating, Kochia (kochia (Bassia scoparia) [20]; 125 g ai/ha): 80 | Plant response rating, Ragweed ([21]; 31 g ai/ha): 80 | Plant response rating, Ragweed ([21]; 125 g ai/ha): 80 | Plant response rating, Blackgrass ([22]; 31 g ai/ha): 0 | Plant response rating, Blackgrass ([22]; 125 g ai/ha): 10 | Plant response rating, Soybean (soybean (Glycine max) [23]; [28]): 0 | Plant response rating, Soybean (soybean (Glycine max) [23]; [29]): 30 | Plant response rating, Galium [24, 28]: 100 | Plant response rating, Galium [24, 29]: 100 | Plant response rating, Kochia (kochia (Bassia scoparia) [25]; [28]): 40 | Plant response rating, Kochia (kochia (Bassia scoparia) [25]; [29]): 80 | Plant response rating, Pigweed, Palmer [26, 28]: 100 | Plant response rating, Pigweed, Palmer [26, 29]: 100 | Plant response rating, Wheat [27, 28]: 0 | Plant response rating, Wheat [27, 29]: 0
